In this assay the target is T1, Na+/K+-ATPase α1,2,3 subunit.
T1 construct: gene ATP1A1; Na+/K+-ATPase α1,2,3 subunit of porcine cortex (Sigma)
As to the kind of experiment: ATPase activity, malachite green Pi release, […] min pre-incubation. The format is biochemical, Sus scrofa.

These results are taken from paper PMC5355295, “A new semisynthetic cardenolide analog 3β-[2-(1-amantadine)- 1-on-ethylamine]-digitoxigenin (AMANTADIG) affects G2/M cell cycle arrest and miRNA expression profiles and enhances proapoptotic survivin-2B expression in renal cell carcinoma cell lines” (Oncotarget, 2017).

`CO[C@H]1[C@@H](O)C[C@H](O[C@H]2[C@@H](O)C[C@H](O[C@H]3[C@@H](O)C[C@H](O[C@H]4CC[C@@]5(C)[C@H](CC[C@@H]6[C@@H]5C[C@@H](O)[C@]5(C)[C@@H](C7=CC(=O)OC7)CC[C@]65O)C4)O[C@@H]3C)O[C@@H]2C)O[C@@H]1C` [β-methyldigoxin] yielded an IC50 of 16.7 µM.
